# Patent US20100016244A1, “D-GLUCOPYRANOSE 1-[3,5-BIS (1,1-DIMETHYLETHY)-4-HYDROXYBENZOATE] AND ITS DERIVATIVES, PREPARATION AND USE THEREOF” (priority 2006, published 2010)
# Columns and labels:
# HIV [1] = conditions: cited from earlier work
# HIV [2] = test system: HIV
# [3] = Solubility in water (tests 1-3); conditions: for pH: after stirring for 48 H at 23° C. in water
# [4] = test system: VHS (Herpes Simplex Virus); conditions: from FR 2 668 931; cited from earlier work
# enveloped-viruses = assay: Active concentration on enveloped-viruses; conditions: BHT versus RDW 031
# [5] = Studies on rats (progeny, mutagenic effect)
# physchem = conditions: water, thermodynamic from solid
# [6] = test system: VHS (Herpes Simplex Virus); assay: Virucidal activity on VHS (Herpes Simplex Virus), decrease in log by concentration and contact time; conditions: for Decrease expressed in log: test n° 4
# Procedure: Results of the tests conducted in the laboratory of Prof. Chiron, (Faculty of Pharmacy of Tours): [table] hypothesis: 10 mg/8 ml (solubility check) Stock-solution: 33.47 mg/24.10 ml (x 1.11 C) i.e.: 11.11 mg/8 ml [table]
smiles,measurement,setting,value
"CC(C)(C)c1cc(C(=O)OCCOCCOCCOCCOCCOCCOCCOCCO)cc(C(C)(C)C)c1O [AVF1, 3.5-di-tert-butyl-4-hydroxybenzoate octa-oxy-ethylene glycol]",decrease of HIV's infectivity,HIV [1],7 log
"CC(C)(C)c1cc(C(=O)O)cc(C(C)(C)C)c1O [BG4, 3,5-di-t-butyl-4-hydroxybenoic acid]",reduction of the virulence of a HIV culture,HIV [2],5 log
same,Solubility 12 H at 23° C.,"[3]; Test No 2, water, RDW031 batch RV 34",insoluble
same,Solubility after stirring for 48 H at 23° C.,"[3]; Test no 3, 1 g + 100 ml H2O, RDW031 batch RV 41, BG4 from SIGMA-ALDRICH",130 µg/mL
same,pH,[3]; Test no 3,pH = 5.6
same,Solubilité ½ H à 23° c.,"[3]; water, ½ H at 23° C.",No measurable
same,Solubility ½ H at 100° C.,"[3]; water, ½ H at 100° C., no desolubilization at room temperature",0.84 g/litre (no
same,concentration required for effectiveness on VHS,[4],0.5%
"Cc1cc(C(C)(C)C)c(O)c(C(C)(C)C)c1 [BHT, butylhydroxytoluene]",molar active concentration relative to RDW 031,enveloped-viruses,100 times
CC(C)(C)c1cc(C(=O)OC2O[C@H](CO)[C@@H](O)[C@H](O)[C@H]2O)cc(C(C)(C)C)c1O (stereo partly drawn) [RDW031],effects on progeny and mutagenic effect,[5],never shown any detectable effects
same,solubility at 0.5 h,physchem; 23 °C,40 µg/mL
same,solubility at 12 h,physchem; 23 °C,1200 µg/mL
same,solubility at 0.5 h,physchem; 100 °C,1080 µg/mL
same,reduction of the virulence of a HIV culture,HIV [2],5 log
same,pH,[3]; Test no 3,pH = 5.9
same,"active concentration, starting",[6],≥ 0.0625%
same,Reduction expressed in log,"[6]; 0.00125 mg/ml (1/1000), contact time 120 min",0.31 log
same,Reduction expressed in log,"[6]; 0.00250 mg/ml (1/500), contact time 60 min",1.06 log
same,Reduction expressed in log,"[6]; 0.00250 mg/ml (1/500), contact time 120 min",1.15 log
same,Reduction expressed in log,"[6]; 0.00625 mg/ml (1/200), contact time 60 min",1.06 log
same,Reduction expressed in log,"[6]; 0.02500 mg/ml (1/50), contact time 30 min",0.31 log
same,Reduction expressed in log,"[6]; 0.06250 mg/ml (1/20), contact time 30 min",0.21 log
same,Reduction expressed in log,"[6]; 0.25000 mg/ml (⅕), contact time 15 min",0.00 log
same,Reduction expressed in log,"[6]; 0.62500 mg/ml (½), contact time 15 min",3.68 log
same,active concentration expressed,[6]; converted from % concentration,≥ 0.0015 mol
same,Decrease expressed in log,"[6]; 0.17028 mg/ml (⅕), contact time 15 min",0.00 log
same,Decrease expressed in log,"[6]; 0.17028 mg/ml (⅕), contact time 30 min",0.00 log
same,Decrease expressed in log,"[6]; 0.17028 mg/ml (⅕), contact time 60 min",0.00 log
same,Decrease expressed in log,"[6]; 0.17028 mg/ml (⅕), contact time 120 min",0.00 log
same,Decrease expressed in log,"[6]; 0.42570 mg/ml (½), contact time 60 min",0.00 log
same,Decrease expressed in log,"[6]; 0.42570 mg/ml (½), contact time 120 min",1.48 log
same,Decrease expressed in log,"[6]; 0.85140 mg/ml (pur), contact time 15 min",1.25 log
same,Decrease expressed in log,"[6]; 0.85140 mg/ml (pur), contact time 30 min",1.86 log
same,Decrease expressed in log,"[6]; 0.85140 mg/ml (pur), contact time 60 min",2.15 log
same,Decrease expressed in log,"[6]; 0.85140 mg/ml (pur), contact time 120 min",2.32 log
same,effect on polio virus (naked-virus),polio virus,no effect
